Our source for the IC50 values is patent US20160046610A1, “3-HETEROARYL SUBSTITUTED INDAZOLES” (BAYER PHARMA AKTIENGESELLSCHAFT, priority 2013, published 2016).

pIC50: −log10 of the molar value. Where two headings read alike, the source gives them in different places.

Assay [1] addresses T1, catalytic domain of human Bub1 (amino acids 704-1085) (Homo sapiens, UniProt O43683).
T1 construct: catalytic domain of human Bub1 (amino acids 704-1085); His6 (N); made in house; host or cells: Hi5 insect cells
The assay can be described thus: Bub1 kinase assay (TR-FRET). It counts as biochemical. Here is the method: To this end, 100-fold concentrated compound solutions (in DMSO) were previously prepared by serial dilution (1:3.4) of 2 mM stocks in a clear low volume 384-well source microtiter plate (Greiner Bio-One, Frickenhausen, Germany), from which 50 nl of compounds were transferred into a black low volume test microtiter plate from the same supplier. […] The resulting mixture (5 μL final volume) was incubated at 22° C. during 60 min., and the reaction was stopped by the addition of 5 μL of an aqueous EDTA-solution (50 mM EDTA, in 100 mM HEPES pH 7.5 and 0.2% (w/v) bovine serum albumin) which also contained the TR-FRET detection reagents (0.2 μM streptavidin-XL665 [Cisbio Bioassays, Codolet, France] and 1 nM anti-phosho-Serine antibody [Merck Millipore, cat. #35-001] and 0.4 nM LANCE EU-W1024 labeled anti-mouse IgG antibody [Perkin-Elmer, product no. AD0077, alternatively a Terbium-cryptate-labeled anti-mouse IgG antibody from Cisbio Bioassays can be used]). The stopped reaction mixture was further incubated 1 h at 22° C. in order to allow the formation of complexes between peptides and detection reagents. Subsequently, the amount of product was evaluated by measurement of the resonance energy transfer from the Eu-chelate-antibody complex recognizing the Phosphoserine residue to the streptavidin-XL665 bound to the biotin moiety of the peptide. […] IC50 values were calculated by fitting the normalized inhibition data to a 4-parameter logistic equation (Minimum, Maximum, IC50, Hill; Y=Max+(Min−Max)/(1+(X/IC50)Hill)).
In general terms: In TR-FRET formats the signal depends on donor and acceptor labels being close together.

Another assay relates to HeLa cell line. Nature of the assay: Proliferation assay (HeLa cell line), crystal violet staining. It counts as cell-based. The conditions noted are these: Homo sapiens, 96 h, read-out: Biological Assay 2: Proliferation assay (HeLa cell line) median IC50. Here is the method: Cultivated tumor cells (cells were ordered from ATCC, except HeLa-MaTu and HeLa-MaTu-ADR, which were ordered from EPO-GmbH, Berlin) were plated at a density of 1000 to 5000 cells/well, depending on the growth rate of the respective cell line, in a 96-well multititer plate in 200 μL of their respective growth medium supplemented 10% fetal calf serum. After 24 hours, the cells of one plate (zero-point plate) were stained with crystal violet (see below), while the medium of the other plates was replaced by fresh culture medium (200 μL), to which the test substances were added in various concentrations (0 μM, as well as in the range of 0.001-10 μM; the final concentration of the solvent dimethyl sulfoxide was 0.5%). The cells were incubated for 4 days in the presence of test substances. Cell proliferation was determined by staining the cells with crystal violet: the cells were fixed by adding 20 μl/measuring point of an 11% glutaric aldehyde solution for 15 minutes at room temperature. After three washing cycles of the fixed cells with water, the plates were dried at room temperature. The cells were stained by adding 100 μl/measuring point of a 0.1% crystal violet solution (pH 3.0). After three washing cycles of the stained cells with water, the plates were dried at room temperature. The dye was dissolved by adding 100 μl/measuring point of a 10% acetic acid solution. Absorption was determined by photometry at a wavelength of 595 nm. The change of cell number, in percent, was calculated by normalization of the measured values to the absorption values of the zero-point plate (=0%) and the absorption of the untreated (0 μm) cells (=100%). The IC50 values were determined by means of a 4 parameter fit using the company's own software.

Where [2] appears, read: TR-FRET, recombinant catalytic domain of human Bub1, ATP 10 μM, peptide substrate 1 μM, median value, read-out: Biological Assay 1: Bub1 kinase assay median IC50.
Where [3] appears, read: HeLa cells, incubated for 4 days with test substance, crystal violet staining, median value.

T1 sequence (O43683 704-1085): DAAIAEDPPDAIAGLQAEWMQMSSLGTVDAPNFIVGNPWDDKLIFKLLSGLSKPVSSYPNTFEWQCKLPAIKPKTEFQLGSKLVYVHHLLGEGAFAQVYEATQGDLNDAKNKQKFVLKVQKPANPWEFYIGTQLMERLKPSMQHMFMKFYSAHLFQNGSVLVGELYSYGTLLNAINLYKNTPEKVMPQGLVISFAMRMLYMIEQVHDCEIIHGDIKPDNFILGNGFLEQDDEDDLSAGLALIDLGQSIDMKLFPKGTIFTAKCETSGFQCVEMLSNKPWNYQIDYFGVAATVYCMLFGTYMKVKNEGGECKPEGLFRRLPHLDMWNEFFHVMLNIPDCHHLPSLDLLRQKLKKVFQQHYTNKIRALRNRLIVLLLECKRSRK

Take `CCOc1cc(F)c(Cn2nc(-c3ncc(OC)c(Nc4ccccc4)n3)c3ccccc32)c(F)c1` [Example 2-1-1, 2-[1-(4-ethoxy-2,6-difluorobenzyl)-1H-indazol-3-yl]-5-methoxy-N-phenylpyrimidin-4-amine]: the pIC50 was 5.82 in assay [1] (setting [2]) and < 5.00 in the assay on HeLa cell line (HeLa).

For `COc1ccc(Cn2nc(-c3ncc(OC)c(Nc4cccnc4)n3)c3ccccc32)cc1` [Example 2-1-3, 5-methoxy-2-[1-(4-methoxybenzyl)-1H-indazol-3-yl]-N-(pyridin-3-yl)pyrimidin-4-amine], the pIC50 in assay [1] (setting [2]) is 5.59; in the assay on HeLa cell line (HeLa), 5.44.

As for `COc1ccc(Cn2nc(-c3ncc(OC)c(Nc4ccnn4C)n3)c3ccccc32)cc1` [Example 2-1-4, 5-methoxy-2-[1-(4-methoxybenzyl)-1H-indazol-3-yl]-N-(1-methyl-1H-pyrazol-5-yl)pyrimidin-4-amine], the pIC50 in assay [1] (setting [2]) is 5.48.

Turning to `COc1ccc(Cn2nc(-c3ncc(OC)c(Nc4ccccc4)n3)c3ccccc32)cc1` [Example 2-1-5, 5-methoxy-2-[1-(4-methoxybenzyl)-1H-indazol-3-yl]-N-phenylpyrimidin-4-amine], the pIC50 in assay [1] (setting [2]) was 5.43.

Consider `COc1ccc(Cn2nc(-c3ncc(OC)c(Nc4ccc(F)cc4)n3)c3ccccc32)cc1` [Example 2-1-6, N-(4-fluorophenyl)-5-methoxy-2-[1-(4-methoxybenzyl)-1H-indazol-3-yl]pyrimidin-4-amine], for which the pIC50 in assay [1] (setting [2]) is 5.06.

Regarding `CCOc1cc(F)c(Cn2nc(-c3ncc(OC)c(Nc4ccnnc4)n3)c3ccccc32)c(F)c1` [Example 2-2-1, N-{2-[1-(4-ethoxy-2,6-difluorobenzyl)-1H-indazol-3-yl]-5-methoxypyrimidin-4-yl}pyridazin-4-amine], the pIC50 in assay [1] (setting [2]) was 7.96; in the assay with HeLa cell line (HeLa), < 5.00.

`CCOc1cc(F)c(Cn2nc(-c3ncc(OC)c(Nc4ccncn4)n3)c3ccccc32)c(F)c1` [Example 2-2-2, 2-[1-(4-ethoxy-2,6-difluorobenzyl)-1H-indazol-3-yl]-5-methoxy-N-(pyrimidin-4-yl)pyrimidin-4-amine]: the figures for the pIC50 (in assay [1] (setting [2]); with HeLa cell line (HeLa)) were 7.66 and < 5.00, respectively.

As for `CCOc1cc(F)c(Cn2nc(-c3cc(Nc4ccncn4)ncn3)c3ccccc32)c(F)c1` [Example 2-2-3, 6-[1-(4-ethoxy-2,6-difluorobenzyl)-1H-indazol-3-yl]-N-(pyrimidin-4-yl)pyrimidin-4-amine], the results for the pIC50 (in assay [1] (setting [2]); with HeLa cell line (HeLa)) were 7.60 and 5.30, respectively.

As to `CCOc1cc(F)c(Cn2nc(-c3ncc(OC)c(Nc4ccccc4C(=O)O)n3)c3ccccc32)c(F)c1` [Example 2-2-4, 2-({2-[1-(4-ethoxy-2,6-difluorobenzyl)-1H-indazol-3-yl]-5-methoxypyrimidin-4-yl}amino)benzoic acid], the pIC50 in assay [1] is 6.54.

In the case of `CCOc1cc(F)c(Cn2nc(-c3ncc(OC)c(Nc4ccc(F)cc4C(=O)O)n3)c3ccccc32)c(F)c1` [Example 2-2-5, 2-({2-[1-(4-ethoxy-2,6-difluorobenzyl)-1H-indazol-3-yl]-5-methoxypyrimidin-4-yl}amino)-5-fluorobenzoic acid], in assay [1], the pIC50 is 6.74.

In the case of `CCOc1cc(F)c(Cn2nc(-c3ncc(OC)c(Nc4cncc(C(=O)NC)n4)n3)c3ccccc32)c(F)c1` [Example 2-2-6, 6-({2-[1-(4-ethoxy-2,6-difluorobenzyl)-1H-indazol-3-yl]-5-methoxypyrimidin-4-yl}amino)-N-methylpyrazine-2-carboxamide], the values for the pIC50 (in assay [1] (setting [2]); in the assay on HeLa cell line (HeLa)) were 6.18 and < 5.00, respectively.

As to `CCCc1ccc(Cn2nc(-c3ncc(OC)c(Nc4ccncn4)n3)c3ccccc32)cc1` [Example 2-3-1, 5-methoxy-2-[1-(4-propylbenzyl)-1H-indazol-3-yl]-N-(pyrimidin-4-yl)pyrimidin-4-amine], the pIC50 in assay [1] (setting [2]) is 7.36; with HeLa cell line (HeLa), < 5.00.

Regarding `CCOc1cc(F)c(Cn2nc(-c3ncc(OC)c(Nc4ccc(O)cc4)n3)c3ccccc32)c(F)c1` [Example 2-4-1, 4-({2-[1-(4-ethoxy-2,6-difluorobenzyl)-1H-indazol-3-yl]-5-methoxypyrimidin-4-yl}amino)phenol], the pIC50 in assay [1] (setting [2]) was 6.62; with HeLa cell line (HeLa) it was 5.16.

For `CCOc1cc(F)c(Cn2nc(-c3cc(Nc4ccncn4)ccn3)c3ccccc32)c(F)c1` [Example 2-5-1, N-{2-[1-(4-ethoxy-2,6-difluorobenzyl)-1H-indazol-3-yl]pyridin-4-yl}pyrimidin-4-amine], the pIC50 in assay [1] (setting [2]) is 7.85; with HeLa cell line (HeLa), < 5.00.

For the compound `CCOc1cc(F)c(Cn2nc(-c3cc(Nc4ncncn4)ccn3)c3ccccc32)c(F)c1` [Example 2-5-2, N-{2-[1-(4-ethoxy-2,6-difluorobenzyl)-1H-indazol-3-yl]pyridin-4-yl}-1,3,5-triazin-2-amine], the figures for the pIC50 (in assay [1] (setting [2]); with HeLa cell line (HeLa)) were 7.68 and 5.54, respectively.

Turning to `CCOc1cc(F)c(Cn2nc(-c3cc(Nc4cnsc4)ccn3)c3ccccc32)c(F)c1` [Example 2-5-3, 2-[1-(4-ethoxy-2,6-difluorobenzyl)-1H-indazol-3-yl]-N-(1,2-thiazol-4-yl)pyridin-4-amine], the pIC50 in assay [1] (setting [2]) is 6.14; in the assay on HeLa cell line (HeLa), < 5.00.

Turning to `CCOc1cc(F)c(Cn2nc(-c3cc(Nc4ccncn4)ccn3)c3cnccc32)c(F)c1` [Example 2-5-4, N-{2-[1-(4-ethoxy-2,6-difluorobenzyl)-1H-pyrazolo[4,3-c]pyridin-3-yl]pyridin-4-yl}pyrimidin-4-amine], the pIC50 in assay [1] is 6.66.

For the compound `COc1ccc(Cn2nc(-c3nccc(Nc4nnc(N)[nH]4)n3)c3ccccc32)cc1` [Example 2-5-5, N-{2-[1-(4-methoxybenzyl)-1H-indazol-3-yl]pyrimidin-4-yl}-4H-1,2,4-triazole-3,5-diamine], the pIC50 in assay [1] (setting [2]) is 5.55.

`Fc1cccc(F)c1Cn1nc(-c2cc(Nc3ccncn3)ccn2)c2ccccc21` [Example 2-6-2, N-{2-[1-(2,6-difluorobenzyl)-1H-indazol-3-yl]pyridin-4-yl}pyrimidin-4-amine]: the pIC50 is 7.89 in assay [1] and < 5.00 with HeLa cell line (setting [3]).

Take `CCCc1ccc(Cn2nc(-c3cc(Nc4ccncn4)ccn3)c3ccccc32)cc1` [Example 2-6-3, N-{2-[1-(4-propylbenzyl)-1H-indazol-3-yl]pyridin-4-yl}pyrimidin-4-amine]: the pIC50 is 7.55 in assay [1] and 5.16 in the assay on HeLa cell line (setting [3]).

Compound `Cn1cc(Nc2ccnc(-c3nn(Cc4ccccc4F)c4ccccc34)c2)cn1` [Example 2-6-4, 2-[1-(2-fluorobenzyl)-1H-indazol-3-yl]-N-(1-methyl-1H-pyrazol-4-yl)pyridin-4-amine] showed a pIC50 in assay [1] of 4.77.

Turning to `CCOc1cc(F)c(Cn2nc(-c3cc(Nc4cn[nH]c4)ccn3)c3ccccc32)c(F)c1` [Example 2-7-1, 2-[1-(4-ethoxy-2,6-difluorobenzyl)-1H-indazol-3-yl]-N-(1H-pyrazol-4-yl)pyridin-4-amine], the pIC50 in assay [1] (setting [2]) was 7.77; in the assay on HeLa cell line (HeLa), 5.62.

On to `CCOc1cc(F)c(Cn2nc(-c3cc(Nc4ncnn4CC)ccn3)c3ccccc32)c(F)c1` [Example 2-8-1, 2-[1-(4-ethoxy-2,6-difluorobenzyl)-1H-indazol-3-yl]-N-(1-ethyl-1H-1,2,4-triazol-5-yl)pyridin-4-amine], for which the pIC50 in assay [1] (setting [2]) was 6.92.

For the compound `CCOc1cc(F)c(Cn2nc(-c3cc(Nc4nnc[nH]4)ccn3)c3ccccc32)c(F)c1` [Example 2-8-2, 2-[1-(4-ethoxy-2,6-difluorobenzyl)-1H-indazol-3-yl]-N-(4H-1,2,4-triazol-3-yl)pyridin-4-amine], the pIC50 in assay [1] (setting [2]) is 6.10.
